Patent US20090181972A1, “Novel Inhibitors of Cysteine Proteases, the Pharmaceutical Compositions Thereof and their Therapeutic Applications” (priority 2005, published 2009)

Key:
SENP1 = target: T1, SENP1 (Homo sapiens, UniProt Q9P0U3); assay: SENP1 activity assay; format: biochemical; conditions: MBP-SENP1 1.8 nM, 200 nM SUMO-AMC; pre-incubated 30 minutes at 25° C., 60 minutes at 37° C.; sigmoidal fit
T1 construct: made in house; host or cells: E. coli BL21
T1 sequence (Q9P0U3 1-644): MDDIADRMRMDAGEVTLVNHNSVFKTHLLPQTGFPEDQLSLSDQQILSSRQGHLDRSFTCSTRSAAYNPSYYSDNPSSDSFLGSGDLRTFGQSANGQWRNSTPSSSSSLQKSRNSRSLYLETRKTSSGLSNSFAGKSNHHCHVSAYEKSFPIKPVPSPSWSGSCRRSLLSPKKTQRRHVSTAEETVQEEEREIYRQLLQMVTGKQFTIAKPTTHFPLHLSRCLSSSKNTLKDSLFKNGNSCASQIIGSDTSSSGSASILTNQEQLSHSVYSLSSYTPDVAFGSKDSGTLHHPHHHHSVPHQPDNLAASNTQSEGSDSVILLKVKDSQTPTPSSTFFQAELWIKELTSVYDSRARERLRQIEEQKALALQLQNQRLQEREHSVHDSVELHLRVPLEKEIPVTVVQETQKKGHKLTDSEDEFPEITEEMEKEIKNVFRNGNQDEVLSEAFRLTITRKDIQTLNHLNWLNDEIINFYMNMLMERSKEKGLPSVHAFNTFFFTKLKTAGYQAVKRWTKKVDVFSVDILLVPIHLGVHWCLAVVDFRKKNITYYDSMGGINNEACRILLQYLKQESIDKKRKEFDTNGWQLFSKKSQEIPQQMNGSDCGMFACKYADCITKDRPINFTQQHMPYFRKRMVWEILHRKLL
Experimental: The cDNA encoding SENP1 was obtained by PCR amplification from placenta mRNA. SENP1 cDNA was subcloned by PCR into a bacterial expression vector (pMAL-C2X; New England BioLabs, Inc). The sequence was ascertained by sequencing of the entire open reading frame. pMAL-C2-SENP1 was transformed into BL21 cells and grown in LB-ampicillin medium supplemented with glucose (2 g.l^−1). Fusion protein expression was induced by IPTG (0.5 mM). Bacterial cell lysates were harvested and lyzed in lysis buffer (Tris HCl 20 mM pH 7.4; 1 mM EDTA; 200 mM NaCl; 0.5% Triton X-100; 10 % glycerol; Protease Inhibitor Cocktail) followed by sonication. Proteins were affinity purified on amylose affinity resin (New England BioLabs, Inc). Bound materials were extensively washed in wash buffer (20 mM Tris HCl pH 7.4; 200 mM NaCl; 1 mM EDTA; 0.5% Triton X-100; 10% glycerol) and eluted from the resin in 10 mM maltose-containing wash buffer. Proteins were dialyzed in dialysis buffer (Tris HCl pH 7.6 20 mM; NaCl 200 mM; DTT 1 mM; EDTA 1 mM; 10% Glycerol). Proteins purifications were analyzed on 4-12% NuPAGE (Invitrogen).
MBP-SENP1 was diluted in SENP1 buffer (50 mM Tris HCl; 0.5 mM EDTA; 5 mM DTT; 0.01 % Triton X-100; Bovine Serum Albumin 0.05 mg.ml^−1 pH 7.6). Compounds stocks (100 mM) were stored at −20° C. in DMSO. Compounds were tested at the following final concentrations: 100 μM; 33.3 μM; 11.1 μM; 3.7 μM; 1.23 μM; 412 nM; 137 nM; 45.7 nM; 15.2 nM; 5 nM.
Reactions were performed as duplicates in Black LJL 96 well plates (HE microplates; Molecular Devices; 20 μl final reaction volume). The substrate concentration for SENP1 was 200 nM SUMO-AMC (Chem. Biol., 2003, 10, p. 837-846) (Boston Biochem). The concentration of the enzyme (SENP1) in specificity assays was 1.8 nM. The concentrations were determined in order to perform specificity assays under initial velocities at fixed substrate concentration. Compounds were pre-incubated with enzymes for 30 minutes at 25° C. Reactions were initiated by addition of substrate to the plates containing the enzymes (+/− compounds) diluted in assay buffer. Reactions were incubated for 60 minutes at 37° C. Reactions were stopped by adding acetic acid (100 mM final). Readings were performed on a Pherastar Fluorescent Reader (BMG). λ Emission 380 nm; λ Excitation=460 nm. Data (mean values +/− standard deviation) were analyzed as % of control (no compound) and plotted as percentage versus the Log of the compound concentration using GraphPad (Prism). Data were fitted to a sigmoidal model (variable slope).

[1] = tested on: PC-3 prostate cancer cells; assay: PC3 cell viability and proliferation assay (MTS); format: cell-based; conditions: Homo sapiens, PC-3, 72 hours incubation, mean of three independent experiments, read-out: PC3 GI50 D3
Experimental: PC-3 prostate cancer cells were obtained from ATCC, and maintained in F-12K medium containing 7% FBS and 1% penicillin/streptomycin. Cells were incubated at 37° C. in a humidified atmosphere containing 5% CO2.
(§1) Cell viability was assayed using the MTS technique in 96-well culture plates (CellTiter 96® Aqueous Non-Radioactive Cell Proliferation Assay, Promega) according to the manufacturer's instructions. MTS (3-(4,5-dimethyl-thiazol-2-yl)-5-(3-carboxymethoxyphenyl)-2-(4-sulfophenyl)-2H-tetrazolium) is a MTT-derived tetrazolium that is reduced in metabolically active cells into a soluble, cell-permeant formazan. The amount of formazan, detected by its absorbance at 492 nm is proportional to the number of living, metabolically active cells.
(§2) 2×10^3 PC3 cells were seeded per well. 24 hours later, the medium was changed and the cells treated in triplicate with the following concentrations of each compound: 10 μM-3.33 μM-1.11 μM-370 nM-123 nM-41 nM-14 nM and 5 nM. The compounds were diluted in 100% DMSO, whose final concentration on cells was kept at 0.5%.
(§3) Cells were incubated with the compounds for 72 hours, and their viability then assayed by the addition of MTS for 2 hours. Absorbance at 492 nm was measured directly from the 96-well culture plates. GI50 (Growth Inhibition 50) concentrations for each compound were calculated using a sigmoidal variable slope fit (Prism 4.0, Graphpad Softwares). Values represent mean of three independent experiments.

[2] = tested on: HCT116 colon cancer cells; assay: HCT116 cell viability and proliferation assay (MTS); format: cell-based; conditions: Homo sapiens, HCT-116, 72 hours incubation, mean of three independent experiments, read-out: HCT116 GI50 D3
Experimental: HCT116 colon cancer cells were obtained from ATCC (American Type Culture Collection), and maintained in Mc Coy's 5A medium containing 10% FBS, 3 mM glutamine and 1% penicillin/streptomycin. Cells were incubated at 37° C. in a humidified atmosphere containing 5% CO2.
as §1, with “(3-(4,5-dimethyl-thiazol-2-yl)-5-(3-carboxymethoxyphenyl)-2-(4-sulfophenyl)-2H-tetra-zolium)” for “(3-(4,5-dimethyl-thiazol-2-yl)-5-(3-carboxymethoxyphenyl)-2-(4-sulfophenyl)-2H-tetrazolium)”
as §2, with “10^3 HCT116” for “2×10^3 PC3”
as §3, with “G150” for “GI50”

Caspase 3 = target: T2, Caspase 3 (Homo sapiens, UniProt P42574); assay: Caspase 3 activity assay; format: biochemical; conditions: 500 nM Ac-DEVD-AMC, 3.2 nM enzyme; pre-incubated 30 minutes at 25° C., 60 minutes at 37° C.; sigmoidal fit
T2 sequence (P42574 29-175 limits assumed): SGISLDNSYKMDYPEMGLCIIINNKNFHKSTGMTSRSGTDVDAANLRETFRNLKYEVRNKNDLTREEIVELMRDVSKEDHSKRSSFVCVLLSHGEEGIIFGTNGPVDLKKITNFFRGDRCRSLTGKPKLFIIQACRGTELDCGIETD
T2 sequence (P42574 176-277 limits assumed): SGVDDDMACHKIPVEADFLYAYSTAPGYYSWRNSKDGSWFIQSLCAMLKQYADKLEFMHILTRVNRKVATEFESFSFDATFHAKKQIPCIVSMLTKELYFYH
Experimental: Caspase 3 was diluted in Caspase 3 buffer (100 mM Hepes pH 7.5; 10% sucrose; 0.1% CHAPS). Compounds stocks (100 mM) were stored at −20° C. in DMSO. Compounds were tested at the following final concentrations: 100 μM; 33.3 μM; 11.1 μM; 3.7 μM; 1.23 μM; 412 nM; 137 nM; 45.7 nM; 15.2 nM; 5 nM. Reactions were performed as duplicates in Black LJL 96 well plates (HE microplates; Molecular Devices; 20 μl final reaction volume). The substrate concentration for caspase 3 specificity assay was 500 nM (Ac-DEVD-AMC; Promega). The concentration of the enzyme (Caspase 3) in specificity assays was 3.2 nM. The concentrations were determined in order to perform specificity assays under initial velocities at fixed substrate concentration. Compounds were pre-incubated with enzymes for 30 minutes at 25° C. Reactions were initiated by addition of substrate to the plates containing the enzymes (+/− compounds) diluted in assay buffer. Reactions were incubated for 60 minutes at 37° C. Reactions were stopped by adding acetic acid (100 mM final). Readings were performed on a Pherastar Fluorescent Reader (BMG). δ Emission 380 nm; δ Excitation=460 nm. Data (mean values +/− standard deviation) were analyzed as % of control (no compound) and plotted as percentage versus the Log of the compound concentration using GraphPad (Prism). Data were fitted to a sigmoidal model (variable slope).

SMILES	IC50 (SENP1)	GI50 [1]	GI50 [2]	IC50 (Caspase 3)
Cc1nnc2nc3c(nn12)C(=O)c1ccccc1-3 [Example 1b/A, 1-Methyl-2,3,4,10,10a-pentaaza-cyclopenta[b]fluoren-9-one]	> 100000 nM	7090 nM	1300 nM	
Nc1nnc2nc3c(nn12)-c1ccccc1C3=O [Example 1c/B, 3-Amino-1,2,3a,4,10-pentaaza-cyclopenta[b]fluoren-9-one]		3170 nM	981 nM	212 nM
O=C1c2ccccc2-c2nc3nnc(CO)n3nc21 [Example 1h/A, 1-Hydroxymethyl-2,3,4,10,10a-pentaaza-cyclopenta[b]fluoren-9-one]	> 100000 nM	4000 nM	2050 nM	
